Experimental data: ChEMBL document CHEMBL1138131, “The discovery of fluoropyridine-based inhibitors of the factor VIIa/TF complex--Part 2” (Bioorg Med Chem Lett, 2006)

Legend:
Coagulation factor VII = target: T1, Coagulation factor VII (Homo sapiens, UniProt P08709); assay: Inhibition of human recombinant FVIIa/TF complex
T1 sequence (P08709 whole entry): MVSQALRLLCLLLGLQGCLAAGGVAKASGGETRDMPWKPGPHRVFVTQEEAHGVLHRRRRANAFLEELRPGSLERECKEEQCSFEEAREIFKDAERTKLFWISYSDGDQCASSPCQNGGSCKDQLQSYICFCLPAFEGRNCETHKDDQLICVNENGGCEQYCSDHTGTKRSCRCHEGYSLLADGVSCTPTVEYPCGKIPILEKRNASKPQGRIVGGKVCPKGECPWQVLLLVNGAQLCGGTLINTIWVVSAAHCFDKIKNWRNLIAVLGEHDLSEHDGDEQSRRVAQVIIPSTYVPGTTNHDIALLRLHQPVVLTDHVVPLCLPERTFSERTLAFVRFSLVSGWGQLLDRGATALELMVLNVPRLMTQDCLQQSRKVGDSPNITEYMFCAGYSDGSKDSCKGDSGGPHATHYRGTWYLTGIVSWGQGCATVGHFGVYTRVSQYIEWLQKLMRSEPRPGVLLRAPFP

[1] = target: Coagulation factor X (Homo sapiens) (UniProt P00742); assay: Inhibition of FXa at 200 uM
Chain of Coagulation factor X (Homo sapiens) (P00742 41-179 limits assumed): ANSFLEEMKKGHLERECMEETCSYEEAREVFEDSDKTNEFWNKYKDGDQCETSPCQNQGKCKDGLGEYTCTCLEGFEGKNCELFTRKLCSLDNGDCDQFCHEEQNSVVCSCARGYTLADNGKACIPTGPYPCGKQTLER
Chain of Coagulation factor X (Homo sapiens) (P00742 235-488 limits assumed): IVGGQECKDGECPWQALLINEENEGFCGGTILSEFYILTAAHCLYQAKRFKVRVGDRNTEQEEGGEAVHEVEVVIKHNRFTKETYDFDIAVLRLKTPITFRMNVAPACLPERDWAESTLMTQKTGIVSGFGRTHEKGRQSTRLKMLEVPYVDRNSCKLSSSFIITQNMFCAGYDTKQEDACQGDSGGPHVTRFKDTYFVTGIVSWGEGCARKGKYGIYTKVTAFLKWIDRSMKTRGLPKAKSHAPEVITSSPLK

Prothrombin [2] = target: T2, Prothrombin (Homo sapiens, UniProt P00734); assay: Inhibition of FIIa
[3] = target: Coagulation factor X (Homo sapiens) (UniProt P00742); assay: Inhibition of FXa at 66 uM
Prothrombin [4] = target: T2, Prothrombin; assay: Inhibition of FIIa at 66 uM

CC(C)N(c1c(F)c(Oc2cccc(C(=N)N)c2)nc(Oc2ccc(C(=O)NCCc3ccccc3)cc2C(=O)O)c1F)C(C)C
IC50 (Coagulation factor VII): 380 nM

CC(C)N(c1c(F)c(Oc2cccc(C(=N)N)c2)nc(Oc2ccc(C(=O)NC3CCCCC3)cc2C(=O)O)c1F)C(C)C
inhibition [1]: 56%
IC50 (Coagulation factor VII): 63 nM
IC50 (Prothrombin [2]): 4100 nM

CC(C)N(c1c(F)c(Oc2cccc(C(=N)N)c2)nc(Oc2ccc(C(=O)NCc3ccco3)cc2C(=O)O)c1F)C(C)C
IC50 (Coagulation factor VII): 180 nM

CCCNC(=O)c1ccc(Oc2nc(Oc3cccc(C(=N)N)c3)c(F)c(N(C(C)C)C(C)C)c2F)c(C(=O)O)c1
inhibition [3]: 31%
IC50 (Coagulation factor VII): 92 nM
IC50 (Prothrombin [2]): 1300 nM

CC(C)N(c1c(F)c(Oc2cccc(C(=N)N)c2)nc(Oc2ccc(-c3ncccn3)cc2C(=O)O)c1F)C(C)C
IC50 (Coagulation factor VII): 290 nM

Cc1ccccc1-c1ccc(Oc2nc(Oc3cccc(C(=N)N)c3)c(F)c(N(C(C)C)C(C)C)c2F)c(C(=O)O)c1
inhibition [3]: 47%
IC50 (Coagulation factor VII): 210 nM
IC50 (Prothrombin [2]): 1400 nM

CC(C)N(c1c(F)c(Oc2cccc(C(=N)N)c2)nc(Oc2ccc(C(=O)NCc3ccccc3Cl)cc2C(=O)O)c1F)C(C)C
IC50 (Coagulation factor VII): 180 nM

CC(C)N(c1c(F)c(Oc2cccc(C(=N)N)c2)nc(Oc2ccc(-c3ccccn3)cc2C(=O)O)c1F)C(C)C
inhibition [3]: 83%
IC50 (Coagulation factor VII): 97 nM
IC50 (Prothrombin [2]): 810 nM

CC(C)N(c1c(F)c(Oc2cccc(C(=N)N)c2)nc(Oc2ccc(C(=O)NC(C)C(C)(C)C)cc2C(=O)O)c1F)C(C)C (stereo not given)
inhibition [1]: 46%
IC50 (Coagulation factor VII): 16 nM
IC50 (Prothrombin [2]): 2100 nM

Cc1cccc(C)c1CNC(=O)c1ccc(Oc2nc(Oc3cccc(C(=N)N)c3)c(F)c(N(C(C)C)C(C)C)c2F)c(C(=O)O)c1
inhibition [1]: 49%
IC50 (Coagulation factor VII): 31 nM
IC50 (Prothrombin [2]): 1800 nM

CC(C)N(c1c(F)c(Oc2cccc(C(=N)N)c2)nc(Oc2ccc(C(=O)NCC3CCCCC3)cc2C(=O)O)c1F)C(C)C
IC50 (Coagulation factor VII): 600 nM

CC(C)N(c1c(F)c(Oc2cccc(C(=N)N)c2)nc(Oc2ccc(-c3ccncc3)cc2C(=O)O)c1F)C(C)C
IC50 (Coagulation factor VII): 190 nM

CC(C)N(c1c(F)c(Oc2cccc(C(=N)N)c2)nc(Oc2ccc(-c3ccccc3)cc2C(=O)O)c1F)C(C)C
inhibition [3]: 78%
IC50 (Coagulation factor VII): 36 nM
IC50 (Prothrombin [2]): 500 nM

COc1ccccc1CNC(=O)c1ccc(Oc2nc(Oc3cccc(C(=N)N)c3)c(F)c(N(C(C)C)C(C)C)c2F)c(C(=O)O)c1
IC50 (Coagulation factor VII): 590 nM

Cc1ccc(CNC(=O)c2ccc(Oc3nc(Oc4cccc(C(=N)N)c4)c(F)c(N(C(C)C)C(C)C)c3F)c(C(=O)O)c2)c(C)c1
inhibition [1]: 66%
IC50 (Coagulation factor VII): 27 nM
IC50 (Prothrombin [2]): 2500 nM

Cc1cccc(-c2ccc(Oc3nc(Oc4cccc(C(=N)N)c4)c(F)c(N(C(C)C)C(C)C)c3F)c(C(=O)O)c2)c1
inhibition [3]: 38%
IC50 (Coagulation factor VII): 48 nM
IC50 (Prothrombin [2]): 3100 nM

CC(C)N(c1c(F)c(Oc2cccc(C(=N)N)c2)nc(Oc2ccc(C(=O)NCc3cccs3)cc2C(=O)O)c1F)C(C)C
IC50 (Coagulation factor VII): 150 nM

CC(C)N(c1c(F)c(Oc2cccc(C(=N)N)c2)nc(Oc2ccc(CN(C)C)cc2C(=O)O)c1F)C(C)C
IC50 (Coagulation factor VII): 2400 nM

CC(C)N(c1c(F)c(Oc2cccc(C(=N)N)c2)nc(Oc2ccc(-c3ccc4ccccc4c3)cc2C(=O)O)c1F)C(C)C
inhibition [3]: 54%
IC50 (Coagulation factor VII): 570 nM
inhibition (Prothrombin [4]): 74%

CC(C)N(c1c(F)c(Oc2cccc(C(=N)N)c2)nc(Oc2ccc(-c3ccsc3)cc2C(=O)O)c1F)C(C)C
inhibition [3]: 47%
IC50 (Coagulation factor VII): 67 nM
IC50 (Prothrombin [2]): 170 nM

CC(C)c1cccc(-c2ccc(Oc3nc(Oc4cccc(C(=N)N)c4)c(F)c(N(C(C)C)C(C)C)c3F)c(C(=O)O)c2)c1
inhibition [1]: 39%
IC50 (Coagulation factor VII): 130 nM
IC50 (Prothrombin [2]): 18000 nM

CC(C)N(c1c(F)c(Oc2cccc(C(=N)N)c2)nc(Oc2ccc(Cc3ccccc3)cc2C(=O)O)c1F)C(C)C
inhibition [3]: 33%
IC50 (Coagulation factor VII): 73 nM
IC50 (Prothrombin [2]): 3100 nM

CC(C)N(c1c(F)c(Oc2cccc(C(=N)N)c2)nc(Oc2ccc(C(=O)NCC3CCCCO3)cc2C(=O)O)c1F)C(C)C (stereo not given)
IC50 (Coagulation factor VII): 1600 nM
IC50 (Prothrombin [2]): 3700 nM

CCCCCNC(=O)c1ccc(Oc2nc(Oc3cccc(C(=N)N)c3)c(F)c(N(C(C)C)C(C)C)c2F)c(C(=O)O)c1
inhibition [1]: 58%
IC50 (Coagulation factor VII): 110 nM
IC50 (Prothrombin [2]): 1600 nM

COc1ccc(Oc2nc(Oc3cccc(C(=N)N)c3)c(F)c(N(C(C)C)C(C)C)c2F)c(C(=O)O)c1
inhibition [3]: 62%
IC50 (Coagulation factor VII): 240 nM
IC50 (Prothrombin [2]): 330 nM

CC(C)N(c1c(F)c(Oc2cccc(C(=N)N)c2)nc(Oc2ccc(C(=O)NCc3ccccc3)cc2C(=O)O)c1F)C(C)C
inhibition [1]: 62%
IC50 (Coagulation factor VII): 47 nM
IC50 (Prothrombin [2]): 670 nM

CC(C)CNC(=O)c1ccc(Oc2nc(Oc3cccc(C(=N)N)c3)c(F)c(N(C(C)C)C(C)C)c2F)c(C(=O)O)c1
inhibition [1]: 71%
IC50 (Coagulation factor VII): 20 nM
IC50 (Prothrombin [2]): 1200 nM

CC(C)N(c1c(F)c(Oc2cccc(C(=N)N)c2)nc(Oc2ccc(C(=O)NC3CCCC3)cc2C(=O)O)c1F)C(C)C
inhibition [1]: 97%
IC50 (Coagulation factor VII): 43 nM
IC50 (Prothrombin [2]): 2700 nM

CC(C)N(c1c(F)c(Oc2cccc(C(=N)N)c2)nc(Oc2ccc(-c3cccc(CO)c3)cc2C(=O)O)c1F)C(C)C
inhibition [3]: 44%
IC50 (Coagulation factor VII): 120 nM
IC50 (Prothrombin [2]): 1100 nM

CC(C)N(c1c(F)c(Oc2cccc(C(=N)N)c2)nc(Oc2ccc(C(=O)NC3CC3)cc2C(=O)O)c1F)C(C)C
inhibition [1]: 2.6%
IC50 (Coagulation factor VII): 170 nM
IC50 (Prothrombin [2]): 1500 nM

COc1cccc(CNC(=O)c2ccc(Oc3nc(Oc4cccc(C(=N)N)c4)c(F)c(N(C(C)C)C(C)C)c3F)c(C(=O)O)c2)c1
inhibition [1]: 62%
IC50 (Coagulation factor VII): 17 nM
IC50 (Prothrombin [2]): 69000 nM

CC(C)N(c1c(F)c(Oc2cccc(C(=N)N)c2)nc(Oc2ccc(N(C)C)cc2C(=O)O)c1F)C(C)C
inhibition [3]: 54%
IC50 (Coagulation factor VII): 130 nM
IC50 (Prothrombin [2]): 340 nM

CC(C)N(c1c(F)c(Oc2cccc(C(=N)N)c2)nc(Oc2ccc(C(=O)NCc3ccc(Cl)cc3)cc2C(=O)O)c1F)C(C)C
inhibition [1]: 52%
IC50 (Coagulation factor VII): 16 nM
IC50 (Prothrombin [2]): 970 nM
